US12064426B2, “Selective inhibitors of ROCK1 and ROCK2 protein kinases and uses thereof” (GENOSCO Inc., priority 2021, dated 2024)

Columns and labels:
[1] = target: T1, Recombinant ROCK1 (amino acids 1-477) (Homo sapiens, UniProt Q13464); assay: ROCK inhibition assay, LANCE Ultra TR-FRET kinase assay (ROCK1); format: biochemical; conditions: 1 μM ATP, 50 nM ULight-CREBtide substrate
T1 construct: Recombinant ROCK1 (amino acids 1-477); by word order, ROCK1 from Carna Biosciences
Summary of the method: (§1)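 Reaction buffer 50 mM HEPES pH 7.5, 10 mM MgCl2, 1 mM EGTA, 2 mM DTT; kinase, ULight-CREBtide (50 nM) and ATP (ROCK1 1 μM, ROCK2 4 μM) react 1 h at room temperature. Phospho-Ser133 detected by europium antibody after 10 mM EDTA stop, TR-FRET ex 320 nm; IC50 calculated.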

[2] = target: T2, Recombinant ROCK2 (amino acids 5-554) (Homo sapiens, UniProt O75116); assay: ROCK inhibition assay, LANCE Ultra TR-FRET kinase assay (ROCK2); format: biochemical; conditions: 4 μM ATP, 50 nM ULight-CREBtide substrate
T2 construct: ROCK2 (amino acids 5-554); by word order, ROCK2 from SignalChem
Summary of the method: as §1

T2 sequence (O75116 5-554): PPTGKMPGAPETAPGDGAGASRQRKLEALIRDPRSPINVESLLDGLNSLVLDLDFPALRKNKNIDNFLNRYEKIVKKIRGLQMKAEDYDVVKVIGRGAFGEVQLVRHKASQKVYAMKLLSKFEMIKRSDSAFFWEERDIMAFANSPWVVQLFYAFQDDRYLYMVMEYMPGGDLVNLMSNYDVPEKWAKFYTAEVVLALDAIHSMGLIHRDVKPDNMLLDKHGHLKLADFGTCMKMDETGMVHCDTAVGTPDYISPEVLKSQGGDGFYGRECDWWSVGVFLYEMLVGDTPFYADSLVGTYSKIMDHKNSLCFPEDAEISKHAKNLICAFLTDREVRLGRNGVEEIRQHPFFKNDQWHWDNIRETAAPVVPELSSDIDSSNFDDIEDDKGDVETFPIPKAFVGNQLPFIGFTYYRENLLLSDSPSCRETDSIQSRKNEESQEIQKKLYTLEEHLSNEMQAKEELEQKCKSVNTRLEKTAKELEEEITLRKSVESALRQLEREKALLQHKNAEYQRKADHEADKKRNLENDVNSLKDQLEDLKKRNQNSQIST
T1 sequence (Q13464 1-477): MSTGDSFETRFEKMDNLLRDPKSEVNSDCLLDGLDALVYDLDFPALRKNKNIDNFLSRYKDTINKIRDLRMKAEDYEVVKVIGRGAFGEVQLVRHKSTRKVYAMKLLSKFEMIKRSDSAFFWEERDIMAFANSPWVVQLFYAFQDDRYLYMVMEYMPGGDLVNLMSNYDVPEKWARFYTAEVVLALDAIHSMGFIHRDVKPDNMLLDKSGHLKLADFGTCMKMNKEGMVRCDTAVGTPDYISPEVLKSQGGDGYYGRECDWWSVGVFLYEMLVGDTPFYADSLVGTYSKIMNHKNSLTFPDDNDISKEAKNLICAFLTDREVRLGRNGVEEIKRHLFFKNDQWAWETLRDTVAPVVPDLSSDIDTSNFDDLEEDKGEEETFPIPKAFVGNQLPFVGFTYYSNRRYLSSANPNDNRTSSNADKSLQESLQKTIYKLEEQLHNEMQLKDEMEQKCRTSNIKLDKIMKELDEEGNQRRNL

IC50 [1] [nM] | IC50 [2] [nM] | Compound
> 501 | > 500 | CNC(=O)c1cccc(Cn2ccc3cc(-c4cnoc4)ccc3c2=O)c1 [Compound 300]
> 501 | > 500 | CNC(=O)c1cccc(Cn2ccc3cc(-c4cnoc4C)ccc3c2=O)c1 [Compound 301]
> 501 | > 500 | CNC(=O)c1cccc(Cn2ccc3cc(-c4ccoc4)ccc3c2=O)c1 [Compound 302]
> 501 | > 500 | CNC(=O)c1cccc(Cn2ccc3cc(-c4ccoc4C)ccc3c2=O)c1 [Compound 303]
> 501 | > 500 | CNC(=O)c1cccc(Cn2ccc3cc(C4=CCOC4)ccc3c2=O)c1 [Compound 304]
101 to 500 | 100 to 500 | CNC(=O)c1cccc(Cn2ccc3cc(-c4cc[nH]c4)ccc3c2=O)c1 [Compound 305]
101 to 500 | 100 to 500 | CNC(=O)c1cccc(Cn2ccc3cc(-c4cc[nH]c4C)ccc3c2=O)c1 [Compound 306]
11 to 100 | < 10 | [2H]C([2H])([2H])NC(=O)c1cccc(Cn2ccc3cc(-c4conc4C)ccc3c2=O)c1 [Compound 307]
< 10 | < 10 | CNC(=O)c1cccc(Cn2ccc3cc(-c4cn[nH]c4)ccc3c2=O)c1 [Compound 308]
11 to 100 | < 10 | CNC(=O)c1cccc(C(C)n2ccc3cc(-c4conc4C)ccc3c2=O)c1 (stereo not drawn) [Compound 309]
11 to 100 | < 10 | CNC(=O)c1cccc(Cn2cc(Cl)c3cc(-c4conc4C)ccc3c2=O)c1 [Compound 310]
> 501 | 100 to 500 | CNC(=O)c1cccc(Cn2ccc3cc(-c4conc4C)ccc3c2=O)n1 [Compound 311]
101 to 500 | 10 to 100 | CNC(=O)c1cncc(Cn2ccc3cc(-c4conc4C)ccc3c2=O)c1 [Compound 312]
> 501 | 100 to 500 | CNC(=O)c1cc(Cn2ccc3cc(-c4conc4C)ccc3c2=O)ccn1 [Compound 313]
101 to 500 | 10 to 100 | CNC(=O)c1cccc(Cn2ccc3cc(-c4conc4C)ccc3c2=O)c1F [Compound 314]
11 to 100 | < 10 | CNC(=O)c1cc(F)cc(C(C)n2ccc3cc(-c4conc4C)ccc3c2=O)c1 (stereo not drawn) [Compound 316]
101 to 500 | 10 to 100 | CNC(=O)c1cc(Cn2ccc3cc(-c4conc4C)ccc3c2=O)ccc1F [Compound 317]
11 to 100 | < 10 | CNC(=O)c1cc(F)cc(Cn2cc(Cl)c3cc(-c4conc4C)ccc3c2=O)c1 [Compound 318]
101 to 500 | 10 to 100 | CNC(=O)c1cc(Cl)cc(Cn2ccc3cc(-c4conc4C)ccc3c2=O)c1 [Compound 319]
101 to 500 | 10 to 100 | [2H]C([2H])([2H])NC(=O)c1cccc(Cn2ccc3cc(-c4ccnn4C)ccc3c2=O)c1 [Compound 321]
101 to 500 | 10 to 100 | CNC(=O)c1cccc(C(C)n2ccc3cc(-c4ccnn4C)ccc3c2=O)c1 (stereo not drawn) [Compound 322]

IC50 [1] [nM] | IC50 [2] [nM] | Compound
101 to 500 | 100 to 500 | CNC(=O)c1cc(Cl)cc(Cn2ccc3cc(-c4ccnn4C)ccc3c2=O)c1 [Compound 324]
101 to 500 | 10 to 100 | CNC(=O)c1cccc(Cn2ccc3cc(-c4ccncc4)ccc3c2=O)c1 [Compound 325]
> 501 | > 500 | CNC(=O)c1cccc(Cn2ccc3cc(-c4cnnn4C)ccc3c2=O)c1 [Compound 327]
101 to 500 | 10 to 100 | CNC(=O)c1cccc(Cn2ccc3cc(N4CCOCC4)ccc3c2=O)c1 [Compound 328, N-methyl-3-((6-morpholino-1-oxoisoquinolin-2(1H)-yl)methyl)benzamide]
101 to 500 | 10 to 100 | CNC(=O)c1cc(F)cc(Cn2ccc3cc(N4CCOCC4)ccc3c2=O)c1 [Compound 329]
> 501 | > 500 | CNC(=O)c1cccc(Cn2ccc3cc(N4CC5CC(C4)O5)ccc3c2=O)c1 [Compound 330]
> 501 | 100 to 500 | CNC(=O)c1cccc(Cn2ccc3cc(N4CCO[C@@H](C)C4)ccc3c2=O)c1 [Compound 331]
> 501 | 100 to 500 | CC(=O)Nc1cccc(Cn2ccc3cc(-c4ccoc4C)ccc3c2=O)c1 [Compound 332, N-(3-((6-(2-methylfuran-3-yl)-1-oxoisoquinolin-2(1H)-yl)methyl)phenyl)acetamide]
> 501 | 100 to 500 | CC(=O)Nc1cc(F)cc(Cn2ccc3cc(-c4ccoc4C)ccc3c2=O)c1 [Compound 333]
101 to 500 | 10 to 100 | CC(=O)Nc1cccc(Cn2ccc3cc(-c4cnoc4C)ccc3c2=O)c1 [Compound 334]
101 to 500 | 10 to 100 | CC(=O)Nc1cc(Cn2ccc3cc(-c4cnoc4C)ccc3c2=O)ccc1F [Compound 335]
101 to 500 | 10 to 100 | CC(=O)Nc1cccc(Cn2ccc3cc(-c4c[nH]nc4C)ccc3c2=O)c1 [Compound 336]
101 to 500 | 10 to 100 | CC(=O)Nc1cccc(Cn2ccc3cc(-c4c[nH]nc4C(F)(F)F)ccc3c2=O)c1 [Compound 337]
11 to 100 | 10 to 100 | CC(C)C(=O)Nc1cccc(Cn2ccc3cc(-c4c[nH]nc4C(F)(F)F)ccc3c2=O)c1 [Compound 338]
101 to 500 | 10 to 100 | O=C(Nc1cccc(Cn2ccc3cc(-c4c[nH]nc4C(F)(F)F)ccc3c2=O)c1)C1CCOCC1 [Compound 339]
11 to 100 | < 10 | O=C(CCc1ccccn1)Nc1cccc(Cn2ccc3cc(-c4c[nH]nc4C(F)(F)F)ccc3c2=O)c1 [Compound 340]
101 to 500 | 10 to 100 | CC(=O)Nc1cccc(Cn2ccc3cc(-c4c[nH]nc4C(F)F)ccc3c2=O)c1 [Compound 341]
101 to 500 | 10 to 100 | O=C(Nc1cccc(Cn2ccc3cc(-c4c[nH]nc4C(F)F)ccc3c2=O)c1)c1cccnc1 [Compound 342]
101 to 500 | 10 to 100 | O=C(Nc1cccc(Cn2ccc3cc(-c4c[nH]nc4C(F)F)ccc3c2=O)c1)C1COC1 [Compound 343]
101 to 500 | 10 to 100 | O=C(Nc1cccc(Cn2ccc3cc(-c4c[nH]nc4C(F)F)ccc3c2=O)c1)c1ccccc1 [Compound 344]
11 to 100 | 10 to 100 | CC(=O)Nc1cccc(Cn2ccc3cc(-c4c[nH]nc4Cl)ccc3c2=O)c1 [Compound 345]

IC50 [1] [nM] | IC50 [2] [nM] | Compound
101 to 500 | 10 to 100 | O=C(Nc1cccc(Cn2ccc3cc(-c4c[nH]nc4Cl)ccc3c2=O)c1)C1COC1 [Compound 346]
101 to 500 | 10 to 100 | CC(=O)Nc1cccc(Cn2ccc3cc(-c4conc4C)ccc3c2=O)c1 [Compound 347]
11 to 100 | 10 to 100 | Cc1nocc1-c1ccc2c(=O)n(Cc3cccc(NC(=O)C4COC4)c3)ccc2c1 [Compound 348]
11 to 100 | 10 to 100 | Cc1nocc1-c1ccc2c(=O)n(Cc3cccc(NC(=O)c4ccc(F)cc4)c3)ccc2c1 [Compound 349]
101 to 500 | 10 to 100 | Cc1nocc1-c1ccc2c(=O)n(Cc3cc(F)cc(NC(=O)c4ccccn4)c3)ccc2c1 [Compound 350]
101 to 500 | 10 to 100 | CC(=O)Nc1cc(F)cc(Cn2ccc3cc(-c4conc4C)ccc3c2=O)c1 [Compound 351]
101 to 500 | 10 to 100 | CC(=O)Nc1cccc(Cn2ccc3cc(-c4cn[nH]c4)ccc3c2=O)c1 [Compound 352]
> 501 | 100 to 500 | CC(=O)Nc1cc(F)cc(Cn2ccc3cc(-c4ccnc(N)c4)ccc3c2=O)c1 [Compound 353]
11 to 100 | 10 to 100 | COc1cccc(Cn2cnc3cc(-c4cn[nH]c4)ccc3c2=O)c1 [Compound 354, 3-(3-methoxybenzyl)-7-(1H-pyrazol-4-yl)quinazolin-4(3H)-one]
11 to 100 | 10 to 100 | COc1cccc(Cn2cnc3cc(-c4c[nH]nc4C)ccc3c2=O)c1 [Compound 355]
11 to 100 | 10 to 100 | COc1cccc(Cn2cnc3cc(-c4conc4C)ccc3c2=O)c1 [Compound 357]
11 to 100 | 10 to 100 | COc1cccc(Cn2cnc3cc(-c4ccnn4C)ccc3c2=O)c1 [Compound 358]
11 to 100 | < 10 | COc1cccc(Cn2cnc3cc(-c4c[nH]nc4C(F)F)ccc3c2=O)c1 [Compound 359]
11 to 100 | < 10 | COc1cc(F)cc(Cn2cnc3cc(-c4c[nH]nc4C(F)F)ccc3c2=O)c1 [Compound 360]
11 to 100 | < 10 | COc1cc(F)cc(Cn2cnc3cc(-c4c[nH]nc4Cl)ccc3c2=O)c1 [Compound 361]
11 to 100 | < 10 | COc1cccc(Cn2cnc3cc(-c4c[nH]nc4Cl)ccc3c2=O)c1 [Compound 362]
11 to 100 | 10 to 100 | COc1cccc(Cn2cnc3cc(-c4ccncc4)ccc3c2=O)c1 [Compound 363]
11 to 100 | 10 to 100 | COc1cccc(Cn2cnc3cc(-c4ccnc(N)c4)ccc3c2=O)c1 [Compound 364]
11 to 100 | < 10 | CNC(=O)c1cccc(Cn2cnc3cc(-c4cn[nH]c4)ccc3c2=O)c1 [Compound 366, N-methyl-3-((4-oxo-7-(1H-pyrazol-4-yl)quinazolin-3(4H)-yl)methyl)benzamide]
11 to 100 | < 10 | CNC(=O)c1cccc(Cn2cnc3cc(-c4cn[nH]c4C(F)(F)F)ccc3c2=O)c1 [Compound 367]
11 to 100 | < 10 | [2H]C([2H])([2H])NC(=O)c1cccc(Cn2cnc3cc(-c4cn[nH]c4C(F)(F)F)ccc3c2=O)c1 [Compound 368]
